# Legend:
# Collagenase = Collagenase inhibition, EnzCheck assay; type: biochemical
# Method: Collagenase inhibition was measured using EnzCheck® assay (Molecular Probes, Eugene, Oreg.) according to the manufacturer's instructions. Test materials were evaluated over a wide range of concentrations. Fluorescence was measured after 2-3 hours using a microplate reader set with the wavelength combination 485/530 nm
# NF-kB = assay: NF-κB INHIBITION TEST (NF-kB luciferase reporter, TNFα-stimulated H9c2 cells); type: cell-based, Rat
# Method: The NF-κB INHIBITION TEST was conducted as follows. Rat cardiac myoblasts H9c2 cells were purchased from ATCC (Manassas, Va.). Cultures were maintained in Dulbecco's modified Eagle's medium (DMEM, Invitrogen Life Technologies, Carlsbad, Calif.) supplemented with 10% fetal bovine serum, 100 units/ml penicillin, and 50 ug/ml streptomycin (Invitrogen life technologies, Carlsbad, Calif.). 1×10^4 cells grown in 96-well plates were transiently transfected with 0.45 ug total DNA per well using Lipofectamine 2000 (Invitrogen life technologies, Carlsbad, Calif.). In all transfections, a construct with the thymidine kinase promoter and the Renilla luciferase reporter gene (pRL-TK, Promega, Madison Wis.) was included as an internal control in addition to the NF-kB luciferase promoter. One day after transfection, cells were treated with the indicated samples (in DMSO as vehicle) at indicated concentrations and stimulated with 100 ng/mL of Tumor Necrosis Factor-α (TNFα, Sigma-Aldrich, St Louis, Mo.) for approximately 24 hours before they were lysed for luciferase assays, using Dual-Luciferase Reporter System from Promega (Madison, Wis.), following manufacturer's protocol. Briefly, the firefly luciferase activity was measured first (representing NF-kB promoter activity), followed by the renilla luciferase (internal control), using luminometer LMAX, from Molecular Devices (Sunnyvale, Calif.). The ratio of these two luciferase activities (RLU) was used to evaluate the activity of each promoter:
# NF-κB Inhibition=[1−(RLUsample/RLUcontrol)]*100
# where RLUsample and RLUcontrol are the normalized luciferase activity ratios of the sample and control, respectively.
# Percent NF-kB Inhibition is also reported.
# [1] = 0.0001% by weight of alkylphenol
# [2] = 0.001% by weight of alkylphenol
# [3] = 10 ug/mL, TNFα 100 ng/ml stimulated H9c2 cells
Structure (SMILES),Percent Inhibition of Collagenase (Collagenase; [1]) [%],Percent Inhibition of Collagenase (Collagenase; [2]) [%],Percent Inhibition of Collagenase (Collagenase; 0.01% by weight of alkylphenol) [%],Percent Inhibition of Collagenase (Collagenase; 0.1% by weight of alkylphenol) [%],Percent Inhibition of Collagenase (Collagenase; 1% by weight of alkylphenol) [%],Percent NF-kB Inhibition relative to vehicle (NF-kB; [3]),"Percent NF-kB Inhibition relative to vehicle (NF-kB; 25 ug/mL, TNFα 100 ng/ml stimulated H9c2 cells)","Percent NF-kB Inhibition relative to vehicle (NF-kB; 0.2 ug/ml, vehicle 0.1% DMSO) [%]","Percent NF-kB Inhibition relative to vehicle (NF-kB; 0.5 ug/ml, vehicle 0.1% DMSO) [%]","Percent NF-kB Inhibition relative to vehicle (NF-kB; 1 ug/ml, vehicle 0.1% DMSO) [%]","Percent NF-kB Inhibition relative to vehicle (NF-kB; 2 ug/ml, vehicle 0.1% DMSO) [%]","Percent NF-kB Inhibition relative to vehicle (NF-kB; 4 ug/ml, vehicle 0.1% DMSO) [%]"
CCCCCCc1ccc(O)cc1 [4-hexylphenol],19.57,16.90,27.67,28.82,46.13,–,–,–,–,–,–,–
CCCCCc1ccc(O)cc1 [4-amylphenol],29.42,29.30,34.19,44.66,53.33,54.2%,–,–,–,–,–,–
"CCCc1ccc(O)cc1 [4-propylphenol, reference compound]",–,–,–,–,–,(−49.2%),(−59.1%),–,–,–,–,–
CCCCc1ccc(O)cc1 [4-butylphenol],26.55,23.16,26.81,54.38,59.51,–,–,–,–,–,–,–
"Oc1ccc(/C=C/c2cc(O)cc(/C=C/c3ccc(O)cc3)c2)cc1 [1-hydroxyl 3,5-bis(4′hydroxylstyryl)benzene]",–,–,–,–,–,–,–,0.5,22.1,51.7,71.0,96.1

# — patent US20140005276A1, “COMPOSITIONS COMPRISING SUBSTITUTED PHENOLS AND TOPICAL APPLICATION THEREOF” (priority 2012, published 2014)
